≈ marks a conversion by molar mass, not a printed value. Read-outs that look alike come from different tables or passages of the source.
What was measured:
[1] = tested on: Fusarium moniliforme (Fm); assay: Growth inhibition assay of fungal pathogens, Fm; type: cell-based; conditions: Fusarium verticillioides, 48 h, read-out: Concentration at 90% Inhibition Fm
Experimental: (§1) Compounds of the present invention were evaluated in a growth inhibition assay to determine the ability to control the growth of fungal pathogens, such as Botrtyis cinerea (Bc), Collectotrichum graminicola (Cg), Diplodia maydis (Dm), Fusarium moniliforme (Fm), Fusarium virguliforme (Fv), Phytophthora capsici (Pc), Rhizoctonia solani (Rs), and Septoria tritici (St).
(§2) Compounds to be tested were dissolved in DMSO at 2.5 mg/ml to produce compound stock solutions (“stocks”). Stocks were diluted with DMSO by a five-fold dilution in a 96-well stock plate, and two sets of final concentrations of 50, 10, and 2 ppm or 2, 0.4, and 0.08 ppm were obtained in vitro. A set of positive controls was also prepared, with various concentrations of Soraphen (2, 0.4, and 0.08 ppm), Metalaxyl (1.1, 0.22, and 0.04 ppm), and Metconazole (2, 0.4, and 0.08 ppm or 0.2, 0.04, and 0.008 ppm) after the five-fold dilutions. Negative controls on each plate included 2% DMSO, water, and a blank (media+2% DMSO).
(§3) Fungal spores were isolated from previously sub-cultured plates of Botrtyis cinerea (Bc), Collectotrichum graminicola (Cg), Diplodia maydis (Dm), Fusarium moniliforme (Fm), Fusarium virguliforme (Fv), Phytophthora capsici (Pc), and Septoria tritici (St). The isolated spores were diluted to individual concentrations with a 17% V8 liquid media. For Rhizoctonia solani (Rs) and Pythium irregulare, 1.5 mm mycelial plugs were used in place of spores and/4 Potato Dextrose Broth (PDB) was used for dilution. The spore concentrations and plug sizes were based on growth curves generated at 48 hours for each pathogen.
(§4) In a second 96-well plate, the spores or mycelial plugs, media, diluted compound solutions, and controls were combined. Once the compound was added, a true final concentration of compound in each well was measured by an OD600 reading, which adjusted for any compound precipitation that might have occurred in the well. Plate readings were repeated at both 24 and 48 hours. The blank negative control was used as a background subtraction. Additional visual ratings were performed at both 24 and 48 hours for checking on precipitation and confirming efficacy. Visual and OD600 ratings of the compounds at 48 hours were compared to the 2% DMSO negative control, and the percent of pathogen growth inhibition was determined based on those values.

Botrtyis cinerea (Bc) = assay: Growth inhibition assay of fungal pathogens, Bc; type: cell-based; conditions: 48 h, read-out: Concentration at 90% Inhibition Bc, Botrtyis cinerea; growth inhibition at 48 hours vs 2% DMSO control
Experimental: as §1, §2, §3, §4

Diplodia maydis (Dm) = assay: Growth inhibition assay of fungal pathogens, Dm; type: cell-based; conditions: Stenocarpella maydis, 48 h, read-out: Concentration at 90% Inhibition Dm, Diplodia maydis; growth inhibition at 48 hours vs 2% DMSO control
Experimental: as §1, §2, §3, §4

human (hACC2) = human (hACC2) (Homo sapiens, UniProt O00763); assay: In vitro ACC inhibition assay (ADP-Glo), hACC2; type: biochemical; conditions: Table 2b, additional results, 5 nM ACC2, 20 μM ATP, 20 μM acetyl-CoA
human (hACC2), sequence (O00763 whole entry): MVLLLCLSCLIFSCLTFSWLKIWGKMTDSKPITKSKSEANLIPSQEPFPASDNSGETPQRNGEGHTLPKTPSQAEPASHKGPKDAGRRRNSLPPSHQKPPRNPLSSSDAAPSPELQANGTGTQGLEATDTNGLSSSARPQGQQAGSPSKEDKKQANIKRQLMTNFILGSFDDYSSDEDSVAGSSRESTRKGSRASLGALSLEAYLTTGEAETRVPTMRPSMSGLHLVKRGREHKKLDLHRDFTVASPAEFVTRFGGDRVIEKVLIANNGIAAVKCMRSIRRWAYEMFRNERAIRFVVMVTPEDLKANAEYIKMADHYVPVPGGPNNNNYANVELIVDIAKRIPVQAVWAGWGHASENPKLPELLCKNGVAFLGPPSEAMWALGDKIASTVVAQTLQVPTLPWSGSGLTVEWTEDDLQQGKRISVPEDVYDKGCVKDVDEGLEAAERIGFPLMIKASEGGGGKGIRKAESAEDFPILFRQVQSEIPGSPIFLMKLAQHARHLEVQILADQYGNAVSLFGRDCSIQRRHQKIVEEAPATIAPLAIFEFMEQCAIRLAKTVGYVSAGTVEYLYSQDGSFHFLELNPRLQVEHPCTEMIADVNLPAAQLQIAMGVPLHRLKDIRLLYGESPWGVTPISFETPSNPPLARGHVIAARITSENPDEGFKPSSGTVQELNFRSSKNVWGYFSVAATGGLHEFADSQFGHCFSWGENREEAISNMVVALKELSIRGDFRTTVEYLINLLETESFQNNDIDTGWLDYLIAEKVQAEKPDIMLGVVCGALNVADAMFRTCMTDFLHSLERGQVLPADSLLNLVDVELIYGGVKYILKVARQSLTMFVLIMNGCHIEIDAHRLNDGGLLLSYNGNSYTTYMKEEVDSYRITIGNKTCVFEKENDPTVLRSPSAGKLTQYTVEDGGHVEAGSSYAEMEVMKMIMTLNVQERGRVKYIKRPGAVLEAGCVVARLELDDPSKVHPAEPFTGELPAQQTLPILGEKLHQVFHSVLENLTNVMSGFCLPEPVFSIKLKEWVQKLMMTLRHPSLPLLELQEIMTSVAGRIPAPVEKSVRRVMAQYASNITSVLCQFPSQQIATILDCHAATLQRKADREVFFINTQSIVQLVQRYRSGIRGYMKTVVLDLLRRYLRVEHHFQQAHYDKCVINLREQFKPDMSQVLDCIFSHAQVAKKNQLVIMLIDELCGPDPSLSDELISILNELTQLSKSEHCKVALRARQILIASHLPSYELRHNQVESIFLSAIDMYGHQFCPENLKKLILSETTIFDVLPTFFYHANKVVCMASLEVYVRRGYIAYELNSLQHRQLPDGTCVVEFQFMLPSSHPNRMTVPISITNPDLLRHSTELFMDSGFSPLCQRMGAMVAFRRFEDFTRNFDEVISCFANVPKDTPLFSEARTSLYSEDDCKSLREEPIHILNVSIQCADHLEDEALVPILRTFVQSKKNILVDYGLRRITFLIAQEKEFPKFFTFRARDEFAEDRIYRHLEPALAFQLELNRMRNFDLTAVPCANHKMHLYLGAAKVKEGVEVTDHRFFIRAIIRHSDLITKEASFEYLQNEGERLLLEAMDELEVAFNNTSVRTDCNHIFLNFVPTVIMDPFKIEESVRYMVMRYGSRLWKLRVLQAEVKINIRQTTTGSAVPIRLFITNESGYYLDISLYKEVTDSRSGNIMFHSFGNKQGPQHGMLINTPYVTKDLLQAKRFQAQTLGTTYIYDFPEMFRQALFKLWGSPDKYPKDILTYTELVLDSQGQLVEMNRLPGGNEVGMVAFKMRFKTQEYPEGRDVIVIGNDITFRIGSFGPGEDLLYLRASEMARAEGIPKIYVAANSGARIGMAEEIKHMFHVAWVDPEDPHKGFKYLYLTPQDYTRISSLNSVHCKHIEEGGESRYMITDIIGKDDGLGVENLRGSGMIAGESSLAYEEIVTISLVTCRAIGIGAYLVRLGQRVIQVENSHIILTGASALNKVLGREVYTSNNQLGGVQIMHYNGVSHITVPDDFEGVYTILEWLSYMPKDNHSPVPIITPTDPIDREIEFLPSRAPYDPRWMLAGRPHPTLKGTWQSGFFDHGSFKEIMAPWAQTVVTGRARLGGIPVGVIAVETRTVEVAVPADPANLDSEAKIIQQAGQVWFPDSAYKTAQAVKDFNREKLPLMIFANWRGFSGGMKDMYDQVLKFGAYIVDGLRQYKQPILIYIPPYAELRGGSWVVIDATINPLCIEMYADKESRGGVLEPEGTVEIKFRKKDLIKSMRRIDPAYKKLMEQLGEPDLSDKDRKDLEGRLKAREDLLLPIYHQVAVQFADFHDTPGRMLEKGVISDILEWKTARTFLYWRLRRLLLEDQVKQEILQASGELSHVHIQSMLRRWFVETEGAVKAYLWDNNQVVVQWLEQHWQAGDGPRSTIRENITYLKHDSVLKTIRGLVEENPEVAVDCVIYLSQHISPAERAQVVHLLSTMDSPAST
Experimental: The detailed procedure is as follows. […] 10 μL ADP glo reagent was added. […] 20 μL kinase detection reagent was added.

C. parapsilosis = assay: Antifungal Activity Assay (broth microtiter MIC), C. parapsilosis; type: cell-based, Candida parapsilosis; conditions: Lodderomyces parapsilosis, ATCC22019, 48 h
In short: (§5)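 CLSI M27-A3 microdilution; RPMI 1640+MOPS; 2.5×10^3 CFU/mL final inoculum; cultures from Sabouraud dextrose agar, 35° C overnight; compound working solution 128 μg/mL from 1 mg/mL DMSO stock; visual MIC at 48 h vs growth control.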

Septoria tritici (St) = assay: Growth inhibition assay of fungal pathogens, St; type: cell-based; conditions: Zymoseptoria tritici, 48 h, read-out: Concentration at 90% Inhibition St, Septoria tritici; growth inhibition at 48 hours vs 2% DMSO control
Experimental: as §1, §2, §3, §4

[2] = tested on: Fusarium virguliforme (Fv); assay: Growth inhibition assay of fungal pathogens, Fv; type: cell-based; conditions: 48 h, read-out: Concentration at 90% Inhibition Fv, Fusarium virguliforme, growth inhibition at 48 hours vs 2% DMSO control
Experimental: as §1, §2, §3, §4

[3] = tested on: Collectotrichum graminicola (Cg); assay: Growth inhibition assay of fungal pathogens, Cg; type: cell-based; conditions: 48 h, read-out: Concentration at 90% Inhibition Cg, Collectotrichum graminicola; growth inhibition at 48 hours vs 2% DMSO control
Experimental: as §1, §2, §3, §4

C. krusei = assay: Antifungal Activity Assay (broth microtiter MIC), C. krusei; type: cell-based, Candida krusei; conditions: Pichia kudriavzevii, ATCC6258, 48 h
In short: as §5

fungal (fACC2) = fungal (fACC2) (UniProt Q00955); conditions: read-out: fACC2 (in vitro ACC2 Inhibition Assay, IC50), ADP-Glo, 5 nM ACC2, 20 μM ATP, 20 μM acetyl-CoA
fungal (fACC2), sequence (Q00955 whole entry): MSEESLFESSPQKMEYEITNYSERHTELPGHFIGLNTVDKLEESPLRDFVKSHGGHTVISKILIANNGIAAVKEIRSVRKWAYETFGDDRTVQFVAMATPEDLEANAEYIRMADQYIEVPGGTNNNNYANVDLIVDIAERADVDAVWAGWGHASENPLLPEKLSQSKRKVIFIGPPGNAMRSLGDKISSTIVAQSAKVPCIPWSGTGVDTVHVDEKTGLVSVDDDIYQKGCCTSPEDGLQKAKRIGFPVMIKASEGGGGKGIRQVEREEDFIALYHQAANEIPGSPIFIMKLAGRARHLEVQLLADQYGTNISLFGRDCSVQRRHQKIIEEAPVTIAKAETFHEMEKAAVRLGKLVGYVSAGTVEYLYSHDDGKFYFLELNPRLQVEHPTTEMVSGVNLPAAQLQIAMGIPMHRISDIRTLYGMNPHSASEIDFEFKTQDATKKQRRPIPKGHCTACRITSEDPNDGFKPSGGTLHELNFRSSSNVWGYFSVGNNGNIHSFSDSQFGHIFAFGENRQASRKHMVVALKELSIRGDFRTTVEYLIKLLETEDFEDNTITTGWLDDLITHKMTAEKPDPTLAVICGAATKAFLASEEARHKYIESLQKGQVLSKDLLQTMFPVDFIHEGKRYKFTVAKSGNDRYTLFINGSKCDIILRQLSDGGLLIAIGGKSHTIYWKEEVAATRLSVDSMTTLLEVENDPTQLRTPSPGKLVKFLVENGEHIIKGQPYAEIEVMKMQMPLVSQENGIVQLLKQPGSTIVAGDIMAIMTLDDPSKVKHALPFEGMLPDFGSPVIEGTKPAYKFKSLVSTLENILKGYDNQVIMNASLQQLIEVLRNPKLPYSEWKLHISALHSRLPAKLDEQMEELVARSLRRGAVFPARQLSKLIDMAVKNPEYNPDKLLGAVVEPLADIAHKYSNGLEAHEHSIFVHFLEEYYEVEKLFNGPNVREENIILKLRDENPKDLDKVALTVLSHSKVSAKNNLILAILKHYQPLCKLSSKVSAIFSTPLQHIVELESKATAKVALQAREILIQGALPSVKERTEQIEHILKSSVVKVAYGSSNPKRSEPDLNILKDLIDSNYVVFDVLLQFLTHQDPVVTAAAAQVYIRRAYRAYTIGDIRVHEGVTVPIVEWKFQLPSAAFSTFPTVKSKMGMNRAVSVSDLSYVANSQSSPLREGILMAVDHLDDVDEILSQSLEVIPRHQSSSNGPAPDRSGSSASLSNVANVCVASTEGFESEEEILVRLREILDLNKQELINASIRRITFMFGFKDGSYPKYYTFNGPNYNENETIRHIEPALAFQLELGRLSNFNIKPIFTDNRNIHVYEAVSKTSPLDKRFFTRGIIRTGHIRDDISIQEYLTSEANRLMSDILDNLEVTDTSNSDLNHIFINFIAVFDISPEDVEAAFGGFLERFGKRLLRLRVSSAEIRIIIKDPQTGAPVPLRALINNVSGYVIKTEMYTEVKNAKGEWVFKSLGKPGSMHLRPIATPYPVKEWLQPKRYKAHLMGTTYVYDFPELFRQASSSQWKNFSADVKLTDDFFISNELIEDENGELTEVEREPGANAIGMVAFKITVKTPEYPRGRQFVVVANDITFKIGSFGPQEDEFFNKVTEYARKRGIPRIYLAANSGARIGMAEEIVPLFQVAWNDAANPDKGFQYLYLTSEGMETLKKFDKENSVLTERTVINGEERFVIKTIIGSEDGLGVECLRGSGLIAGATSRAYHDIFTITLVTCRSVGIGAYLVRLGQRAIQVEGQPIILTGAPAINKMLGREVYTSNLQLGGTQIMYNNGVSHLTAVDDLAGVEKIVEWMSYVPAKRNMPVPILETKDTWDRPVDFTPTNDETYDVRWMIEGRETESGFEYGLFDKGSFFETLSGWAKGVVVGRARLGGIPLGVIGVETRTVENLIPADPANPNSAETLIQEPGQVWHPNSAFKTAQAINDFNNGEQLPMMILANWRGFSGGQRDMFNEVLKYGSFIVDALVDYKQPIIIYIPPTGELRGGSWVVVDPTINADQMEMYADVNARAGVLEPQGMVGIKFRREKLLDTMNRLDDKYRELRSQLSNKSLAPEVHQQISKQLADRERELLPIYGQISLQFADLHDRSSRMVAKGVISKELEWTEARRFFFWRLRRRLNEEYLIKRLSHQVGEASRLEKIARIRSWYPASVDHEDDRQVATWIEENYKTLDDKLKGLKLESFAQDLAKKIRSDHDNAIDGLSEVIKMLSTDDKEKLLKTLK

[4] = tested on: Phytophthora capsici (Pc); assay: Growth inhibition assay of fungal pathogens, Pc; type: cell-based; conditions: 48 h, read-out: Concentration at 90% Inhibition Pc, Phytophthora capsici, growth inhibition at 48 hours vs 2% DMSO control
Experimental: as §1, §2, §3, §4

C. albicans = assay: Antifungal Activity Assay (broth microtiter MIC), C. albicans; type: cell-based, Candida albicans; conditions: Candida albicans, ATCC90028, 48 h
In short: as §5

Rhizoctonia solani (Rs) = assay: Growth inhibition assay of fungal pathogens, Rs; type: cell-based; conditions: 48 h, read-out: Concentration at 90% Inhibition Rs, Rhizoctonia solani, mycelial plugs, growth inhibition at 48 hours vs 2% DMSO control
[5] = read-out: MIC, C. parapsilosis ATCC 22019, Table 3b (additional results), 3 replicates, MIC recorded at 48 h
[6] = read-out: MIC, C. krusei ATCC 6258, Table 3b (additional results), 3 replicates, MIC recorded at 48 h
[7] = read-out: MIC, C. albicans ATCC 90028, Table 3b (additional results), 3 replicates, MIC recorded at 48 h

| SMILES | IC90 [1] [µg/mL] | IC90 (Botrtyis cinerea (Bc)) [µg/mL] | IC90 (Diplodia maydis (Dm)) [µg/mL] | IC50 (human (hACC2)) [nM] | MIC (C. parapsilosis; [5]) [µg/mL] | IC90 (Septoria tritici (St)) [µg/mL] | IC90 [2] [µg/mL] | IC90 [3] [µg/mL] | MIC (C. krusei; [6]) [µg/mL] | IC50 (fungal (fACC2); Table 2b, additional results) [nM] | IC90 [4] [µg/mL] | MIC (C. albicans; [7]) [µg/mL] | IC90 (Rhizoctonia solani (Rs)) [µg/mL] | MIC (C. parapsilosis; read-out: MIC, C. parapsilosis ATCC 22019, Table 3a, 3 replicates, MIC recorded at 48 h) [µg/mL] | MIC (C. krusei; read-out: MIC, C. krusei ATCC 6258, Table 3a, 3 replicates, MIC recorded at 48 h) [µg/mL] | IC50 (fungal (fACC2); Table 2a) [nM] | MIC (C. albicans; read-out: MIC, C. albicans ATCC 90028, Table 3a, 3 replicates, MIC recorded at 48 h) [µg/mL] |
| --- | --- | --- | --- | --- | --- | --- | --- | --- | --- | --- | --- | --- | --- | --- | --- | --- | --- |
| COc1ccccc1[C@H](Cn1c(=O)n(C(C)(C)C(=O)NC(C)C)c(=O)c2c(C)c(-n3nccn3)sc21)O[C@H]1CC[C@@H](O)CC1 [Compound I-217] | 0.08 (≈ 0.128 µM) | 0.4 (≈ 0.64 µM) | 2 (≈ 3.2 µM) | 5 to 10 | 0.25 to 1 (≈ 0.4 to 1.6 µM) | > 50 | 0.4 (≈ 0.64 µM) | 2 (≈ 3.2 µM) | 0.06 to 0.249 (≈ 0.096 to 0.399 µM) | 0.3 to 1 | > 50 | 0.25 to 1 (≈ 0.4 to 1.6 µM) | 0.08 (≈ 0.128 µM) |  |  |  |  |
| COc1ccc(F)cc1[C@H](Cn1c(=O)n(C(C)(C)C(=O)NC(C)C)c(=O)c2c(C)c(-n3nccn3)sc21)OCC#N [Compound I-144] | 2 (≈ 3.43 µM) | 0.4 (≈ 0.685 µM) | 0.4 (≈ 0.685 µM) | 5 to 10 | 1.01 to 2 (≈ 1.73 to 3.43 µM) | > 50 | 0.4 (≈ 0.685 µM) | 0.4 (≈ 0.685 µM) | 0.25 to 1 (≈ 0.428 to 1.71 µM) | 1 to 5 | > 50 | 1.01 to 2 (≈ 1.73 to 3.43 µM) | 0.08 (≈ 0.137 µM) | 0.25 to 1 (≈ 0.428 to 1.71 µM) | 0.25 to 1 (≈ 0.428 to 1.71 µM) | 1 to 5 | 0.25 to 1 (≈ 0.428 to 1.71 µM) |
| CCOC(=O)c1ccccc1[C@H](Cn1c(=O)n(C(C)(C)C(=O)NC(C)C)c(=O)c2c(C)c(-n3nccn3)sc21)OCCC#N [Compound I-275] | 2 (≈ 3.22 µM) | 10 (≈ 16.1 µM) | > 50 | > 40 | 2.01 to 4 (≈ 3.23 to 6.43 µM) | > 50 | 2 (≈ 3.22 µM) | > 50 | 2.01 to 4 (≈ 3.23 to 6.43 µM) | 0.3 to 1 | > 50 | 2.01 to 4 (≈ 3.23 to 6.43 µM) | 10 (≈ 16.1 µM) |  |  |  |  |

Source: patent publication US10800791B2, “Triazole ACC inhibitors and uses thereof” (Gilead Apollo, LLC, priority 2015, dated 2020)
